Assays:
CK1ε = CK1ε (Homo sapiens (Human), UniProt P49674); assay: CK1ε kinase assay (Caliper LABCHIP electrophoretic separation of fluoresceinated peptide substrate and product); assay type: biochemical; conditions: 200 pM enzyme, 50 μM ATP, 22 hours at room temperature
Method in brief: (§1)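 Compounds, taken from 10 mM DMSO stocks, are titrated at eleven concentrations. Kinase reactions proceed for 22 hours at room temperature and are quenched with EDTA. Substrate and product are resolved electrophoretically, and IC50 values are fitted by non-linear regression.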

CK1δ = CK1δ (Homo sapiens (Human), UniProt P48730); assay: CK1δ kinase assay (Caliper LABCHIP electrophoretic separation of fluoresceinated peptide substrate and product); assay type: biochemical; conditions: 200 pM enzyme, 50 μM ATP, 22 hours at room temperature
CK1δ, sequence (P48730 whole entry): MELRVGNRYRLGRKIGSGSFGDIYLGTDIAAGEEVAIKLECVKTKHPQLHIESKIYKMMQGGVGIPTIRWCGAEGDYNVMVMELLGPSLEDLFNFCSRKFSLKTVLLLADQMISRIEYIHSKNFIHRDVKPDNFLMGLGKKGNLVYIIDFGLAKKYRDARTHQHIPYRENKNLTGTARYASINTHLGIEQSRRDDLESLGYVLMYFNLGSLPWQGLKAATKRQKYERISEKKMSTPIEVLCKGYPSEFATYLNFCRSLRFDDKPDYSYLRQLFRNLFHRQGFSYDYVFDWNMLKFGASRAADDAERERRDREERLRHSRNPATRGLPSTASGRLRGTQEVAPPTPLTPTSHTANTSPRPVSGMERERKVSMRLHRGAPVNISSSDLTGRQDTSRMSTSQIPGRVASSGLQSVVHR
Method in brief: as §1

CK1ε, sequence (P49674 whole entry): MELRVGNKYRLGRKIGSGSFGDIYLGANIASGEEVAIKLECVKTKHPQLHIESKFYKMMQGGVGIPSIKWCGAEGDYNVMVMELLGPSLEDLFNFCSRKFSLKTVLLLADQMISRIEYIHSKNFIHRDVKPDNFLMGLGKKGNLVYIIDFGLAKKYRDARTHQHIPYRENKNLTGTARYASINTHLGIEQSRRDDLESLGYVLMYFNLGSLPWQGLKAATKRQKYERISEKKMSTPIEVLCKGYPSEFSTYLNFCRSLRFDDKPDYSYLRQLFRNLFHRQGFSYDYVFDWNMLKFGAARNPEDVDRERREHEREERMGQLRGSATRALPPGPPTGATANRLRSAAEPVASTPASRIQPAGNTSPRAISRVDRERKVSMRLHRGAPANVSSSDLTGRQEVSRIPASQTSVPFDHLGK

Row | IC50 (CK1ε) [nM] | IC50 (CK1δ) [nM] | Compound
1 | 59.8 | 34.9 | Cc1nc(-c2ccc(F)cc2)c(-c2ccc3nc(NC(=O)N(C)c4ccccc4)cn3n2)n1C [Compound 407, 3-(6-(4-(4-Fluorophenyl)-1,2-dimethyl-1H-imidazol-5-yl)imidazo[1,2-b]pyridazin-2-yl)-1-methyl-1-phenylurea]
2 | 296 | 12.9 | Cc1nc(-c2ccc(F)cc2)c(-c2ccc3nc(NC(=O)Nc4ccc(C#N)cc4)cn3n2)n1C [Compound 408, 1-(4-cyanophenyl)-3-(6-(4-(4-fluorophenyl)-1,2-dimethyl-1H-imidazol-5-yl)imidazo[1,2-b]pyridazin-2-yl)urea]
3 | 30.8 | 58 | Cc1nc(-c2ccc(F)cc2)c(-c2ccc3nc(NC(=O)N4CCCC4)cn3n2)n1C [Compound 409, N-(6-(4-(4-fluorophenyl)-1,2-dimethyl-1H-imidazol-5-yl)imidazo[1,2-b]pyridazin-2-yl)pyrrolidine-1-carboxamide]
4 | 151 | 7.57 | Cc1nc(-c2ccc(F)cc2)c(-c2ccc3nc(NC(=O)Nc4cccc(C#N)c4)cn3n2)n1C [Compound 410, 1-(3-cyanophenyl)-3-(6-(4-(4-fluorophenyl)-1,2-dimethyl-1H-imidazol-5-yl)imidazo[1,2-b]pyridazin-2-yl)urea]
5 | 19.4 | 1.61 | Cc1nc(-c2ccc(F)cc2)c(-c2ccc3nc(NC(=O)c4ccnc(F)c4)c(Br)n3n2)n1C [Compound 411, N-(3-Bromo-6-(4-(4-fluorophenyl)-1,2-dimethyl-1H-imidazol-5-yl)imidazo[1,2-b]pyridazin-2-yl)-2-fluoroisonicotinamide]
6 | 26.6 | 2.25 | Cc1nc(-c2ccc(F)cc2)c(-c2ccc3nc(NC(=O)c4ccnc(F)c4)c(Cl)n3n2)n1C [Compound 412, N-(3-Chloro-6-(4-(4-fluorophenyl)-1,2-dimethyl-1H-imidazol-5-yl)imidazo[1,2-b]pyridazin-2-yl)-2-fluoroisonicotinamide]
7 | 19.6 | 1.14 | Cc1nc(-c2ccc(F)cc2)c(-c2ccc3nc(NC(=O)c4ccnc(F)c4)c(C)n3n2)n1C [Compound 413, 2-Fluoro-N-(6-(4-(4-fluorophenyl)-1,2-dimethyl-1H-imidazol-5-yl)-3-methylimidazo[1,2-b]pyridazin-2-yl)isonicotinamide]
8 | 4.35 | 0.438 | Cc1nc(-c2ccc(F)cc2)c(-c2ccc3nc(NC(=O)C(C)(C)C)cn3n2)n1C [Compound 414, N-(6-(4-(4-Fluorophenyl)-1,2-dimethyl-1H-imidazol-5-yl)imidazo[1,2-b]pyridazin-2-yl)pivalamide]
9 | 8.71 | 1.21 | O=C(Nc1cn2nc(-c3c(-c4ccc(F)cc4)ncn3CC(F)F)ccc2n1)c1cnc(-c2ccncc2)s1 [Compound 415, N-(6-(1-(2,2-Difluoroethyl)-4-(4-fluorophenyl)-1H-imidazol-5-yl)imidazo[1,2-b]pyridazin-2-yl)-2-(pyridin-4-yl)thiazole-5-carboxamide]
10 | 57.4 | 2.5 | O=C(Nc1cn2nc(-c3c(-c4ccc(F)cc4)ncn3-c3ccc(F)cc3)ccc2n1)c1ccnc(F)c1 [Compound 416, N-(6-(1,4-bis(4-Fluorophenyl)-1H-imidazol-5-yl)imidazo[1,2-b]pyridazin-2-yl)-2-fluoroisonicotinamide]
11 | 79.2 | 6.4 | O=C(Nc1cn2nc(-c3c(-c4ccc(F)cc4)ncn3-c3ccc(F)cc3)ccc2n1)c1cc(F)nc(F)c1 [Compound 418, N-(6-(1,4-bis(4-Fluorophenyl)-1H-imidazol-5-yl)imidazo[1,2-b]pyridazin-2-yl)-2,6-difluoroisonicotinamide]
12 | 35.2 | 3.1 | O=C(Nc1cn2nc(-c3c(-c4ccc(F)cc4)ncn3-c3ccc(F)cc3)ccc2n1)c1ccnc(N2CCOCC2)c1 [Compound 419, N-(6-(1,4-bis(4-Fluorophenyl)-1H-imidazol-5-yl)imidazo[1,2-b]pyridazin-2-yl)-2-morpholinoisonicotinamide]
13 | 18.5 | 3.6 | O=C(Nc1cn2nc(-c3c(-c4ccc(F)cc4)ncn3-c3ccc(F)cc3)ccc2n1)c1cccc(-c2cccnc2)c1 [Compound 420, N-(6-(1,4-bis(4-Fluorophenyl)-1H-imidazol-5-yl)imidazo[1,2-b]pyridazin-2-yl)-3-(pyridin-3-yl)benzamide]
14 | 18 | 1.1 | O=C(Nc1cn2nc(-c3c(-c4ccc(F)cc4)ncn3-c3cccnc3)ccc2n1)c1cc(F)nc(F)c1 [Compound 423, 2,6-Difluoro-N-(6-(4-(4-fluorophenyl)-1-(pyridin-3-yl)-1H-imidazol-5-yl)imidazo[1,2-b]pyridazin-2-yl)isonicotinamide]
15 | 13.6 | 1 | O=C(Nc1cn2nc(-c3c(-c4ccc(F)cc4)ncn3-c3cccnc3)ccc2n1)c1ccnc(N2CCOCC2)c1 [Compound 424, N-(6-(4-(4-Fluorophenyl)-1-(pyridin-3-yl)-1H-imidazol-5-yl)imidazo[1,2-b]pyridazin-2-yl)-2-morpholinoisonicotinamide]
16 | 11 | 1.1 | O=C(Nc1cn2nc(-c3c(-c4ccc(F)cc4)ncn3-c3cccnc3)ccc2n1)c1cccc(-c2cccnc2)c1 [Compound 425, N-(6-(4-(4-Fluorophenyl)-1-(pyridin-3-yl)-1H-imidazol-5-yl)imidazo[1,2-b]pyridazin-2-yl)-3-(pyridin-3-yl)benzamide]
17 | 10.4 | 0.9 | O=C(Nc1cn2nc(-c3c(-c4ccc(F)cc4)ncn3C3CC3)ccc2n1)c1ccnc(F)c1 [Compound 426, N-(6-(1-Cyclopropyl-4-(4-fluorophenyl)-1H-imidazol-5-yl)imidazo[1,2-b]pyridazin-2-yl)-2-fluoroisonicotinamide]
18 | 6.5 | 0.7 | O=C(Nc1cn2nc(-c3c(-c4ccc(F)cc4)ncn3C3CC3)ccc2n1)c1ccncc1 [Compound 427, N-(6-(1-Cyclopropyl-4-(4-fluorophenyl)-1H-imidazol-5-yl)imidazo[1,2-b]pyridazin-2-yl)isonicotinamide]
19 | 9.1 | 0.9 | O=C(Nc1cn2nc(-c3c(-c4ccc(F)cc4)ncn3C3CC3)ccc2n1)c1ccnc(N2CCOCC2)c1 [Compound 428, N-(6-(1-Cyclopropyl-4-(4-fluorophenyl)-1H-imidazol-5-yl)imidazo[1,2-b]pyridazin-2-yl)-2-morpholinoisonicotinamide]
20 | 1.2 | 0.2 | O=C(Nc1cn2nc(-c3c(-c4ccc(F)cc4)ncn3C3CCOCC3)ccc2n1)c1cc(F)nc(F)c1 [Compound 433, 2,6-Difluoro-N-(6-(4-(4-fluorophenyl)-1-(tetrahydro-2H-pyran-4-yl)-1H-imidazol-5-yl)imidazo[1,2-b]pyridazin-2-yl)isonicotinamide]
21 | 1.8 | 0.3 | O=C(Nc1cn2nc(-c3c(-c4ccc(F)cc4)ncn3C3CCOCC3)ccc2n1)c1ccncc1 [Compound 434, N-(6-(4-(4-Fluorophenyl)-1-(tetrahydro-2H-pyran-4-yl)-1H-imidazol-5-yl)imidazo[1,2-b]pyridazin-2-yl)isonicotinamide]
22 | 2 | 0.4 | O=C(Nc1cn2nc(-c3c(-c4ccc(F)cc4)nc4n3CCC4)ccc2n1)c1ccnc(F)c1 [Compound 436, 2-Fluoro-N-(6-(2-(4-fluorophenyl)-6,7-dihydro-5H-pyrrolo[1,2-a]imidazol-3-yl)imidazo[1,2-b]pyridazin-2-yl)isonicotinamide]
23 | 2.1 | 0.3 | O=C(Nc1cn2nc(-c3c(-c4ccc(F)cc4)nc4n3CCC4)ccc2n1)c1ccncc1 [Compound 438, N-(6-(2-(4-Fluorophenyl)-6,7-dihydro-5H-pyrrolo[1,2-a]imidazol-3-yl)imidazo[1,2-b]pyridazin-2-yl)isonicotinamide]
24 | 3.3 | 1.3 | O=C(Nc1cn2nc(-c3c(-c4ccc(F)cc4)nc4n3CCC4)ccc2n1)c1ccnc(N2CCOCC2)c1 [Compound 439, N-(6-(2-(4-Fluorophenyl)-6,7-dihydro-5H-pyrrolo[1,2-a]imidazol-3-yl)imidazo[1,2-b]pyridazin-2-yl)-2-morpholinoisonicotinamide]
25 | 1.3 | 0.4 | O=C(Nc1cn2nc(-c3c(-c4ccc(F)cc4)nc4n3CCC4)ccc2n1)c1cccc(-c2cccnc2)c1 [Compound 440, N-(6-(2-(4-Fluorophenyl)-6,7-dihydro-5H-pyrrolo[1,2-a]imidazol-3-yl)imidazo[1,2-b]pyridazin-2-yl)-3-(pyridin-3-yl)benzamide]
26 | 5.4 | 0.8 | O=C(Nc1cn2nc(-c3c(-c4ccc(F)cc4)nc4n3CCCC4)ccc2n1)c1ccnc(F)c1 [Compound 441, 2-Fluoro-N-(6-(2-(4-fluorophenyl)-5,6,7,8-tetrahydroimidazo[1,2-a]pyridin-3-yl)imidazo[1,2-b]pyridazin-2-yl)isonicotinamide]
27 | 2.5 | 0.4 | O=C(Nc1cn2nc(-c3c(-c4ccc(F)cc4)nc4n3CCCC4)ccc2n1)c1cccc(-c2cccnc2)c1 [Compound 442, N-(6-(2-(4-Fluorophenyl)-5,6,7,8-tetrahydroimidazo[1,2-a]pyridin-3-yl)imidazo[1,2-b]pyridazin-2-yl)-3-(pyridin-3-yl)benzamide]
28 | 2.7 | 0.4 | O=C(Nc1cn2nc(-c3c(-c4ccc(F)cc4)nc4n3CCCC4)ccc2n1)c1ccnc(N2CCOCC2)c1 [Compound 443, N-(6-(2-(4-Fluorophenyl)-5,6,7,8-tetrahydroimidazo[1,2-a]pyridin-3-yl)imidazo[1,2-b]pyridazin-2-yl)-2-morpholinoisonicotinamide]
29 | 2.4 | 0.2 | O=C(Nc1cn2nc(-c3c(-c4ccc(F)cc4)nc4n3CCCC4)ccc2n1)c1ccncc1 [Compound 444, N-(6-(2-(4-Fluorophenyl)-5,6,7,8-tetrahydroimidazo[1,2-a]pyridin-3-yl)imidazo[1,2-b]pyridazin-2-yl)isonicotinamide]
